Experimental data reported in patent US9781938B2, “Method for eliciting plant immune responses by seed priming of heat-treated Bacillus culture solution” (KOREA RESEARCH INSTITUTE OF BIOSCIENCE AND BIOTECHNOLOGY, priority 2012, dated 2017).

Key:
Type in all cases: in vivo
[1] = system: Psuedomonas syringae pv. lachrymans; assay: Establishment of seed priming conditions using BTH: induced systemic resistance in cucumber (culture dish and pot), degree of symptom; conditions: cucumber seed soaked in 1 mM BTH for 12 hours and 18 hours; in vitro and in planta
Protocol: (§1) Regarding the priming of a cucumber seed, to establish conditions for seed treatment at which induced systemic resistance against is induced in a plant without inhibiting plant growth, a cucumber seed was treated with BTH (benzothiadiazole), i.e., a potent substance for eliciting resistance, and it was cultivated in a rectangular culture solution dish (125×125 mm) and a pot for determination. The cucumber seed (Bakbong Dadagi, manufactured by Nongwoo Bio, Korea) was subjected to surface sterilization for 5 minutes using 5% NaOCl and, after rinsing 5 times with sterilized water, died on a filter paper. The sterilized seed was soaked for 0, 6, 12, or 18 hours in BTH solution each at 0.1 μM, 10 μM, or 1 mM. 0 Hour means that the seed was dried immediately after soaking. The soaked seed was dried for 12 hours on a culture dish overlaid with a sterilized filter paper. The seed after priming was sown in a pot filled with soil for horticulture (Punong Co., Ltd., Korea) and also in a rectangular culture dish containing distilled water-agar medium (Water agar; WA, plant agar (8 g/L)). […] Seven days later, any symptom of disease was determined, and the degree of symptom was measured with scale of from 1 to 5. […] Stem weight was measured simultaneously with determination of the degree of symptom to see if there is any growth inhibition.

LOX gene = assay: qRT-PCR expression of plant disease resistance-related gene LOX in cucumber leaf after pathogen inoculation; conditions: BTH treatment group; time not stated
Protocol: (§2) In order to measure an expression amount of a plant disease resistance-related gene, pathogen was inoculated to a cucumber, and sampling was made 0, 3 or 24 hours later. Total RNA was isolated from the sampled cucumber leaf by using RNeasy Plus Mini Kit (50). cDNA was synthesized from 2 μg of the RNA by using an oligo-dT primer and MMLV-RT (Moloney murine leukemia virus reverse transcriptase, Enzynomics, KOREA). cDNA was then used for qRT-PCR (quantitative Reverse Transcriptase Polymerase Chain Reaction) based on Chromo4 Real Time PCR system (BIO-RAD) by using each primer for the genes of LOX, PR2 and ETR that are known to be related to resistance to diseases. LOX primer is as follows; forward direction: 5′-[…]-3′ (SEQ ID NO: 1) and reverse direction: 5′-[…]-3′ (SEQ ID NO: 2), PR2 primer is as follows; forward direction: 5′-[…]-3′ (SEQ ID NO: 3) and reverse direction: 5′-[…]-3′ (SEQ ID NO: 4), and ETR primer is as follows; forward direction: 5′-[…]-3′ (SEQ ID NO: 5) and reverse direction: 5′-GCCAAAGACCACTGCCACA-3′ (SEQ ID NO: 6).

PR2 gene = assay: qRT-PCR expression of plant disease resistance-related gene PR2 in cucumber leaf after pathogen inoculation; conditions: after 24 hours
Protocol: as §2

cucumber = assay: Establishment of seed priming conditions using BTH: stem weight to see growth inhibition
Protocol: as §1

Structure (SMILES): CSC(=O)c1cccc2nnsc12 [BTH, benzo(1,2,3)-thiadiazole-7-carbothioic acid S-methyl ester]
- eliciting induced systemic resistance [1]: most effective
- expression level of LOX gene versus negative control (LOX gene): close to that of a negative control
- PR2 expression level (PR2 gene): 1.7
- PR2 expression level relative to water (0.4) (PR2 gene; vs negative control water): 4.3 times
- growth inhibition (stem weight) (cucumber; seed soaked in 1 mM BTH for 12 hours): no growth inhibition
- growth inhibition (stem weight) (cucumber; seed treated with 1 mM BTH for 18 hours, compared to sterilized water control): growth inhibition is shown with a statistic significance
